Experimental data as given in patent US10028902B2, “Nuclear localization of GLP-1 stimulates myocardial regeneration and reverses heart failure” (BAYLOR RESEARCH INSTITUTE, priority 2013, dated 2018).

Key:
[1] = test system: rat hearts with adriamycin cardiomyopathy; assay: Adriamycin cardiomyopathy in rats: gross pathology, Masson's trichrome staining, echocardiography; format: in vivo
Experimental: (§1) Animal protocol-2: A total of 60 rats were divided into: (1) no treatment (normal control rats, n=12); (2) adriamycin (ADM)^38 injection only, at total dose of 15 mg/kg/ip, 2.5 mg/kg/ip 6 times over 2 weeks, n=12. (3) ADM plus GLP-1 peptide injection, at GLP-1 peptide fragment 7-37 human (dose of 50 nmol/kg/ip/time×6, N=12, from Sigma, St Louis, Mo.), (4) ADM injection plus UTMD-GLP1 peptide delivery (same dose of GLP-1 peptide fragment 7-37 human mixed with microbubble for UTMD), n=12; (5) ADM injection plus UTMD with pXL-BASII-CI-GLP-1/pCI-hyPB, n=12. Half rats were killed at 16 hours after last ADM injection; other half rats were killed at 4 weeks after UTMD. The thymidine analog, 5-bromo-2-deoxyuridine (BrdU) (100 mg/kg) was injected intraperitoneally 6 hours prior to euthanasia.
Animal protocol-3: UTMD was performed after established adriamycin cardiomyopathy defined as a fractional shortening <30% by echocardiography. There were 3 groups of rats as follows: (1) normal control rats, n=6; (2) UTMD with pXL-BASII-CI-DsRed/pCI-hyPB (n=6); (3) UTMD with pXL-BASII-CI-GLP-1/pCI-hyPB (n=12). All rats were killed 4 weeks after UTMD. The thymidine analog, 5-bromo-2-deoxyuridine (BrdU) (100 mg/kg) was injected intraperitoneally 6 hours prior to euthanasia.
Piggybac transposon donor plasmids and helper plasmids ratio (pXL-BASII-CI-GLP-1/pCI-hyPB) was 5:1. Microbubble or control solutions (0.5 ml diluted with 0.5 ml phosphate-buffered solution (PBS)) were infused over 5 min via pump (Genie, Kent Scientific, Torrington, Conn.). During the infusion, ultrasound was directed to the heart using a commercially available ultrasound transducer (S3, Sonos 5500, Philips Ultrasound, Bothell, Wash.). […]
(§2) Echocardiographic measurements of LV fractional shortening and LV posterior wall thickness were made from digital images acquired with a 12 MHz broadband transducer (S12 probe, Philips Ultrasound, Bothell, Wash.). Fractional shortening was evaluated from the following formula: FS=(LVIDd−LVIDs)/LVIDd×100.

[2] = intravenous infusions, patients with myocardial infarction or chronic heart failure; cited from earlier work
[3] = test system: FoxO1; assay: FOXO1 inhibitor injection in rats with ADM cardiomyopathy; format: in vivo, rat; details: total dose 24 mg/kg ip
Experimental: Animal protocol-4: Specific FOXO1 inhibitor (AS1842856, a small molecular compound from Millipore) was injected into rats with ADM cardiomyopathy to investigate if FOXO1 mediates ADM cardiomyopathy. There were 3 groups of rats as follows: (1) normal control rats, n=6; (2) ADM injection only group at total dose of 15 mg/kg/ip, 2.5 mg/kg/ip 6 times over 2 weeks, (n=6); (3) ADM at total dose of 15 mg/kg/ip, 2.5 mg/kg/ip 6 times over 2 weeks plus FOXO1 inhibitor injection (at total dose of 24 mg/kg/ip, 4 mg/kg/ip 6 times over 2 weeks (n=6). All rats were killed 4 weeks after ADM injection.
as §2

[4] = test system: HL-1 cardiac muscle cell line; assay: Nuclear FoxO1 in HL-1 cardiac muscle cell line treated with adriamycin (immunofluorescent staining); format: cell-based; details: 0.25, 0.5, and 1.0 μM, 48 hrs, HL-1 cells
Experimental: The HL-1 cell line was a generous gift from Dr. William C. Claycomb^40 in Louisiana State University Medical Center, New Orleans, La. The cells were maintained in Claycomb basal medium (Sigma) supplemented with 10% fetal bovine serum, 0.1 mM norepinephrine and 2 mM L-glutamine. HL-1 cells were treated with adriamycin at 0 μM, 0.25 μM, 0.50 μM, or 1.00 μM for 48 hrs in complete growth medium, and were subjected to immunofluorescent staining.

[5] = test system: Topoisomerase IIβ; assay: Myocardial nuclear topoisomerase IIβ expression (western blot, qRT-PCR); format: in vivo, rat; details: ADM only or ADM plus UTMD-GLP-1NLS groups, P<0.001
Experimental: […] Half rats were killed at 16 hours after last ADM injection; other half rats were killed at 4 weeks after UTMD. The thymidine analog, 5-bromo-2-deoxyuridine (BrdU) (100 mg/kg) was injected intraperitoneally 6 hours prior to euthanasia.
Total RNA was isolated from 100 mg of harvested heart using the Trizol reagent (Invitrogen), according to the manufacturer's instructions and reverse-transcribed using Superscript III RT (Invitrogen). Real-time RT-qPCR analysis was performed on an ABI 7700 Sequence Detector (Applied Biosystems) using SYBR Green (RT2 SYBR Green qPCR Kit, Qiagen). Data were normalized to HKG expression (endogenous control). Changes in gene expression were normalized to control rat heart tissue. Complementary DNA PCR primer sequences information should be requested to the correspondence author.
(§3) Nuclear proteins extracts from cardiac tissue with a NE-PER Nuclear and Cytoplasmic Extraction Kit (Thermo Scientific, Rockford, Ill. 61105, USA). Protein concentrations were determined using the BCA-200 Protein Assay kit (Pierce); equal amounts of protein were separated by SDS-PAGE. […] Horseradish peroxidase secondary antibodies were used, and chemiluminescence was determined using the Super Signal West Dura detection system (Pierce); nuclear marker (lamin) was used to confirm equal loading. […]

[6] = test system: FoxO1; assay: Myocardial nuclear FoxO1 in adriamycin cardiomyopathy rats (western blot, qRT-PCR); format: in vivo, rat
Experimental: as §1, with “euthanasia. […]” for “euthanasia.”
as §3

GLP-1 peptide fragment 7-37 human (HAEGTFTSDVSSYLEGQAAKEFIAWLVKGRG; Glucagon-like peptide 1(7-37); UniProt P01275 98-128, looked up) [GLP-1 peptide fragment 7-37 human from Sigma, injected ip]
LV mass and wall thickness in adriamycin cardiomyopathy after therapy ([1]; echocardiography, FIGS. 4 and 11): not

GLP-1 protein: GLP-1 protein given by intravenous infusion to patients in cited studies
global LV function and the function of ischemic LV segments [2]: improved

CCn1cc(C(=O)O)c(=O)c2c(N)c(F)c(NC3CCCCC3)cc21 [AS1842856]
activation of myocardial nuclear FoxO1 ([3]; ADM cardiomyopathy rats, FIG. 12): able to block
ADM cardiomyopathy (fractional shortening, LVPWd) ([3]; FIG. 12 panel A-B): reverse

COc1cccc2c1C(=O)c1c(O)c3c(c(O)c1C2=O)C[C@@](O)(C(=O)CO)C[C@@H]3O[C@H]1C[C@H](N)[C@H](O)[C@H](C)O1 [Adriamycin, adriamycin]
overexpression of nuclear FoxO1 [4]: significantly activates
LV mass and wall thickness ([1]; echocardiography, adriamycin cardiomyopathy, total dose 15 mg/kg ip): decreased
gross pathology of LV walls and cavities compared to normal controls ([1]; rats with adriamycin cardiomyopathy, FIG. 2 B, C): thin LV walls and dilated LV cavities
TOP IIβ mRNA level in normal group, fold greater than in the treated group [5]: 18 fold
FoxO1 mRNA level, fold relative to normal control or normal plus UTMD-GLP-1NLS groups ([6]; qRT-PCR, FIG. 6B, ADM only group, or ADM after UTMD GLP-1NLS gene delivery): 12.6 fold
FoxO1 in cardiac nuclear protein extracts ([6]; western blots, FIG. 6A): significant increase
